The results in this text go back to patent US12247033B2, “Triazole-substituted imidazo[1,2-a]pyrimidines as cGAS inhibitors” (GlaxoSmithKline Intellectual Property Development Limited, priority 2022, dated 2025).

The subject of one test is CGAS. The test is described as follows: CGAS whole blood cytokine release assay (384-well, BacMam stimulation, IP-10 by cytometric bead array). The test is classed as cell-based. To be noted: Homo sapiens, 6 h; read-out: hWB pXC50 (converted). As for the experimental part: Blood collection: Blood was collected in a tube containing 10% Sodium Heparin (5 ml/45 ml blood final).
Protocol for CGAS Whole Blood Cytokine Release Assay: Compounds serial diluted at 1:3 were provided at 150 nL per well, in a 384 well polypropylene microplate (cat. 781280; Greiner Bio-One, Frickenhausen, Germany). 5 μL of PBS/20% Null BacMam was dispensed to all wells except for column 18 on a Multidrop Combi (Thermo Scientific, Waltham, MA). 5 uL of PBS was dispensed into column 18. The Bravo (Agilent, Santa Clara, CA) was used to transfer 45 uL of donor derived blood into the compound plates. The Bravo protocol mixed the blood and compound/PBS 5 times. The plates were incubated at 37° C., 5% CO2, for 6 hours. At the 6 hour mark the plates were removed and centrifuged for 10 minutes at 3000 RPM. 3 uL of supernatant was transferred from the plate to a 384 well NBS microplate (cat. 4513; Corning Life Sciences, Corning, NY). These plates were sealed with adhesive foil and stored in a −80 freezer until ready for analysis.
For cytokine detection, Human IP-10 BD cytometric bead array (CBA) beads (BD Biosciences, Franklin Lakes, NJ) were used. Capture bead solution was prepared by performing a 1:50 dilution of the IP-10 capture bead stock solution in BD diluent for serum/plasma (cat. 51-9003991 BD Biosciences, Franklin Lakes, NJ). 2 μL of this solution was added per well to the assay microplates which were then sealed with adhesive foil and incubated at room temperature for 2 h in the dark. Detection reagent was further prepared by performing a 1:50 dilution of the detection reagent stock solution. 2 μL of detection reagent was added per well and microplates were sealed with adhesive foil and incubated at room temperature in the dark for 1 h. After the 1 h incubation 3 uL of BD CBA wash buffer was added per well of the microplates. Data were acquired on an iQue Screener flow cytometer. The iQue used fluorescence detection to quantify the inhibition of IP-10 present in the sample wells. A sip time of 1 second per sample was used. The blue laser with excitation of 488 nm and emission filters 585/40 nm were used to capture the mean and median of IP-10 with the detector in logarithmic mode (FL2-H).
All data analysis was carried out in IDBS ActivityBase XE.

Another test concerns the target human CGAS (157-522) (Homo sapiens, UniProt Q8N884). The test is described as follows: biochemical.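 Further: biochemical enzyme reaction, 2′3′-cGAMP product measured by RapidFire mass spectrometry (MRM) normalised to c-di-UMP internal standard, inhibition of product formation relative to high and low control wells.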

Structures can show the parent of a compound that is named as a salt.

Chain of human CGAS (157-522) (Q8N884 157-522): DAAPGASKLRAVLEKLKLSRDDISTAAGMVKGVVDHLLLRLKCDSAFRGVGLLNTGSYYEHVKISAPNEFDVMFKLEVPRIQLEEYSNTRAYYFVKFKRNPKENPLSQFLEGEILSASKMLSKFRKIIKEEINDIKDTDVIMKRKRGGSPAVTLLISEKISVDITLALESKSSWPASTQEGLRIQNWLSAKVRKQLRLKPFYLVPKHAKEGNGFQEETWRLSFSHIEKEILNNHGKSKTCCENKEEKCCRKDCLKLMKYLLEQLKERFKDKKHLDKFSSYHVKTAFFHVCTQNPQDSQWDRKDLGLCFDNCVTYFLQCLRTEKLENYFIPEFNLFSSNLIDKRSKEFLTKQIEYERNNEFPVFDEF

Turning to `COCC(C)COCc1cnc2nc(-c3nc(C(F)(F)F)n[nH]3)c(-c3cnc[nH]3)n2c1` (stereo not shown) [Example 127, 5-[3-(1H-imidazol-5-yl)-6-[(3-methoxy-2-methylpropoxy)methyl]imidazo[1,2-a]pyrimidin-2-yl]-3-(trifluoromethyl)-1H-1,2,4-triazole], the IC50 in the test on CGAS is 0.251 µM; at human CGAS (157-522), 0.00794 µM.
On the same counts, the results for `CC(=O)c1ccn2c(-c3cnc[nH]3)c(-c3nc(C(F)(F)F)n[nH]3)nc2n1` [Example 14, 1-[3-(1H-imidazol-5-yl)-2-[3-(trifluoromethyl)-1H-1,2,4-triazol-5-yl]imidazo[1,2-a]pyrimidin-7-yl]ethan-1-one] are 0.0631 µM and 0.01 µM.
The like results for `FC(F)(F)c1n[nH]c(-c2nc3ncc(C4CCCC4)cn3c2-c2cnc[nH]2)n1` [Example 16, 5-[6-cyclopentyl-3-(1H-imidazol-5-yl)imidazo[1,2-a]pyrimidin-2-yl]-3-(trifluoromethyl)-1H-1,2,4-triazole, trifluoroacetic acid salt] were, in that order, 3.16 µM and 0.00398 µM.
With `FC(F)(F)c1n[nH]c(-c2nc3ncc(COC4CCOC4)cn3c2-c2cnc[nH]2)n1` (stereo not shown) [Example 78, 5-[3-(1H-imidazol-5-yl)-6-[(oxolan-3-yloxy)methyl]imidazo[1,2-a]pyrimidin-2-yl]-3-(trifluoromethyl)-1H-1,2,4-triazole], the results for the IC50 in the test on CGAS and at human CGAS (157-522) were 0.398 µM and 0.00794 µM, respectively.
On the same counts, the results for `FC(F)(F)c1n[nH]c(-c2nc3ncc(Br)cn3c2-c2cnc[nH]2)n1` [Example 77, 5-[6-bromo-3-(1H-imidazol-5-yl)imidazo[1,2-a]pyrimidin-2-yl]-3-(trifluoromethyl)-1H-1,2,4-triazole] are 0.398 µM and 0.002 µM.
Regarding `CC(C)c1ccn2c(-c3cnc[nH]3)c(-c3nc(C(F)(F)F)n[nH]3)nc2n1` [Example 55, 5-[3-(1H-imidazol-5-yl)-7-(propan-2-yl)imidazo[1,2-a]pyrimidin-2-yl]-3-(trifluoromethyl)-1H-1,2,4-triazole], the figures for the IC50 in the test on CGAS and on human CGAS (157-522) were 1 µM and 0.00794 µM, respectively.
The like results for `FC(F)(F)c1n[nH]c(-c2nc3nc4c(cn3c2-c2c[nH]cn2)C2CCC(C4)O2)n1` (stereo not shown) [Example 136, 5-(1H-imidazol-4-yl)-6-[3-(trifluoromethyl)-1H-1,2,4-triazol-5-yl]-15-oxa-4,7,9-triazatetracyclo[10.2.1.0^2,^10.0^4,^8]pentadeca-2,5,7,9-tetraene] were, in that order, 0.316 µM and 0.00794 µM.
On to `FC(F)(F)c1n[nH]c(-c2nc3ncc(COCCCC4CCCO4)cn3c2-c2cnc[nH]2)n1` (stereo not shown) [Example 140, 5-[3-(1H-imidazol-5-yl)-6-{[3-(oxolan-2-yl)propoxy]methyl}imidazo[1,2-a]pyrimidin-2-yl]-3-(trifluoromethyl)-1H-1,2,4-triazole], for which the figures for the IC50 with CGAS and on human CGAS (157-522) were 0.794 µM and 0.0126 µM, respectively.
With `CSc1ccn2c(-c3cnc[nH]3)c(-c3nc(C(F)(F)F)n[nH]3)nc2n1` [Example 21, 5-[3-(1H-imidazol-5-yl)-7-(methylsulfanyl)imidazo[1,2-a]pyrimidin-2-yl]-3-(trifluoromethyl)-1H-1,2,4-triazole], the IC50 in the test on CGAS is 0.631 µM; at human CGAS (157-522), 0.00501 µM.
On the same counts, the results for `CC1COC(COCc2cnc3nc(-c4nc(C(F)(F)F)n[nH]4)c(-c4c[nH]cn4)n3c2)C1` (stereo not shown) [Example 156, 5-[3-(1H-imidazol-4-yl)-6-{[(4-methyloxolan-2-yl)methoxy]methyl}imidazo[1,2-a]pyrimidin-2-yl]-3-(trifluoromethyl)-1H-1,2,4-triazole] are 0.631 µM and 0.01 µM.
As for `FC(F)c1n[nH]c(-c2nc3ncccn3c2-c2cnc[nH]2)n1` [Example 50, 3-(difluoromethyl)-5-[3-(1H-imidazol-5-yl)imidazo[1,2-a]pyrimidin-2-yl]-1H-1,2,4-triazole], the IC50 is 0.0794 µM in the test with CGAS and 0.00316 µM on human CGAS (157-522).
On the same counts, the results for `COCc1cn2c(-c3cnc[nH]3)c(-c3nc(C(F)F)n[nH]3)nc2nc1C(F)(F)F` [Example 121, 3-(difluoromethyl)-5-[3-(1H-imidazol-5-yl)-6-(methoxymethyl)-7-(trifluoromethyl)imidazo[1,2-a]pyrimidin-2-yl]-1H-1,2,4-triazole] are 1.58 µM and 0.00794 µM.
`O=C(O)CCOC(=O)OCn1nc(C(F)(F)F)nc1-c1nc2ncccn2c1-c1cnc[nH]1` [Example 33, 3-{[({5-[3-(1H-imidazol-5-yl)imidazo[1,2-a]pyrimidin-2-yl]-3-(trifluoromethyl)-1H-1,2,4-triazol-1-yl}methoxy)carbonyl]oxy}propanoic acid, 2 trifluoroacetic acid salt]: the IC50 was 0.501 µM with CGAS and 0.316 µM on human CGAS (157-522).
For the compound `FC(F)(F)c1ccn2c(-c3cnc[nH]3)c(-c3nc(C(F)(F)F)n[nH]3)nc2n1` [Example 3, 5-[3-(1H-imidazol-5-yl)-7-(trifluoromethyl)imidazo[1,2-a]pyrimidin-2-yl]-3-(trifluoromethyl)-1H-1,2,4-triazole], the IC50 is 0.794 µM in the test on CGAS and 0.00631 µM against human CGAS (157-522).
On the same counts, the results for `FC(F)(F)c1n[nH]c(-c2nc3ncc(COCC4CCOC4)cn3c2-c2cnc[nH]2)n1` (stereo not shown) [Example 126, 5-[3-(1H-imidazol-5-yl)-6-{[(oxolan-3-yl)methoxy]methyl}imidazo[1,2-a]pyrimidin-2-yl]-3-(trifluoromethyl)-1H-1,2,4-triazole] are 0.501 µM and 0.00794 µM.
As for `FC(F)(F)c1n[nH]c(-c2nc3ncc(Cc4ccccc4)cn3c2-c2cnc[nH]2)n1` [Example 89, 5-[6-benzyl-3-(1H-imidazol-5-yl)imidazo[1,2-a]pyrimidin-2-yl]-3-(trifluoromethyl)-1H-1,2,4-triazole], the IC50 in the test with CGAS is 1.58 µM; at human CGAS (157-522) it was 0.00251 µM.
On the same counts, the results for `CC(C)(COCc1cnc2nc(-c3nc(C(F)(F)F)n[nH]3)c(-c3c[nH]cn3)n2c1)n1ccnc1` [Example 150, 5-(6-{[2-(1H-imidazol-1-yl)-2-methylpropoxy]methyl}-3-(1H-imidazol-4-yl)imidazo[1,2-a]pyrimidin-2-yl)-3-(trifluoromethyl)-1H-1,2,4-triazole] are 5.01 µM and 0.00501 µM.
As for `CCOCc1cnc2nc(-c3nc(C(F)(F)F)n[nH]3)c(-c3cnc[nH]3)n2c1` [Example 79, 5-[6-(ethoxymethyl)-3-(1H-imidazol-5-yl)imidazo[1,2-a]pyrimidin-2-yl]-3-(trifluoromethyl)-1H-1,2,4-triazole], the IC50 in the test on CGAS was 0.1 µM; at human CGAS (157-522), 0.00316 µM.
On the same counts, the results for `FC(F)c1n[nH]c(-c2nc3nc(C(F)(F)F)ccn3c2-c2cnc[nH]2)n1` [Example 88, 3-(difluoromethyl)-5-[3-(1H-imidazol-5-yl)-7-(trifluoromethyl)imidazo[1,2-a]pyrimidin-2-yl]-1H-1,2,4-triazole] are 0.501 µM and 0.00501 µM.
The like results for `OCCCCCOCc1cnc2nc(-c3nc(C(F)(F)F)n[nH]3)c(-c3cnc[nH]3)n2c1` [Example 142, 5-{[3-(1H-imidazol-5-yl)-2-[3-(trifluoromethyl)-1H-1,2,4-triazol-5-yl]imidazo[1,2-a]pyrimidin-6-yl]methoxy}pentan-1-ol] were, in that order, 0.794 µM and 0.00398 µM.
`CC(=O)N1Cc2cn3c(-c4cnc[nH]4)c(-c4nc(C(F)(F)F)n[nH]4)nc3nc2C(F)(F)C1` [Example 87, 1-[13,13-difluoro-6-(1H-imidazol-5-yl)-5-[3-(trifluoromethyl)-1H-1,2,4-triazol-5-yl]-2,4,7,11-tetraazatricyclo[7.4.0.0^3,^7]trideca-1,3,5,8-tetraen-11-yl]ethan-1-one]: the IC50 in the test with CGAS is above 31.6 µM; against human CGAS (157-522), 2 µM.
On the same counts, the results for `FC(F)(F)c1n[nH]c(-c2nc3ncc(CC4CCCCC4)cn3c2-c2cnc[nH]2)n1` [Example 15, 5-[6-(cyclohexylmethyl)-3-(1H-imidazol-5-yl)imidazo[1,2-a]pyrimidin-2-yl]-3-(trifluoromethyl)-1H-1,2,4-triazole, trifluoroacetic acid salt] are above 31.6 µM and 0.01 µM.
On the same counts, the results for `FC(F)(F)COCc1cnc2nc(-c3nc(C(F)(F)F)n[nH]3)c(-c3cnc[nH]3)n2c1` [Example 111, 5-[3-(1H-imidazol-5-yl)-6-[(2,2,2-trifluoroethoxy)methyl]imidazo[1,2-a]pyrimidin-2-yl]-3-(trifluoromethyl)-1H-1,2,4-triazole] are 0.398 µM and 0.00398 µM.
